# Data reported in US9617253B2, “Molecules having pesticidal utility, and intermediates, compositions, and processes, related thereto” (Dow AgroSciences LLC, priority 2015, dated 2017).
# Tests used:
# [1] = tested on: Beet Armyworm (Spodoptera exigua, LAPHEG); assay: Bioassay on Beet Armyworm (BAW), 128-well diet tray assay; type: in vivo; conditions: 168 h, second instar BAW larvae, 50 μg/cm^2 on artificial diet, 25° C., five to seven days, average of eight wells, read-out: BAW % Control (or Mortality) rating
# Protocol: (§1) Certain molecules disclosed in this document were tested against BAW and CL using procedures described in the following examples. In the reporting of the results, the “BAW & CL Rating Table” was used (See Table Section).
# Bioassays on BAW were conducted using a 128-well diet tray assay. One to five second instar BAW larvae were placed in each well (3 mL) of the diet tray that had been previously filled with 1 mL of artificial diet to which 50 μg/cm^2 of the test molecule (dissolved in 50 μL of 90:10 acetone-water mixture) had been applied (to each of eight wells) and then allowed to dry. Trays were covered with a clear self-adhesive cover, vented to allow gas exchange, and held at 25° C., 14:10 light-dark for five to seven days. Percent mortality was recorded for the larvae in each well; activity in the eight wells was then averaged. The results are indicated in the table entitled “Table ABC: Biological Results” (See Table Section).
# [2] = tested on: Cabbage Looper (Trichoplusia ni, TRIPNI); assay: Bioassay on Cabbage Looper (CL), 128-well diet tray assay; type: in vivo; conditions: 168 h, second instar CL larvae, 50 μg/cm^2 on artificial diet, 25° C., five to seven days, average of eight wells, read-out: CL % Control (or Mortality) rating
# Protocol: as §1
# Bioassays on CL were conducted using a 128-well diet tray assay. One to five second instar CL larvae were placed in each well (3 mL) of the diet tray that had been previously filled with 1 mL of artificial diet to which 50 μg/cm^2 of the test molecule (dissolved in 50 μL of 90:10 acetone-water mixture) had been applied (to each of eight wells) and then allowed to dry. Trays were covered with a clear self-adhesive cover, vented to allow gas exchange, and held at 25° C., 14:10 light-dark for five to seven days. Percent mortality was recorded for the larvae in each well; activity in the eight wells was then averaged. The results are indicated in the table entitled “Table ABC: Biological Results” (See Table Section).
Compound,mortality at 50 µg/cm2 [1],mortality at 50 µg/cm2 [2]
"Cc1ccc(C(C)C)c(N2C(=O)CS/C2=N\C(=O)Nc2ccc(COc3ncn(-c4ccc(OC(F)(F)F)cc4)n3)cc2)c1 [F1, (Z)-1-(3-(2-isopropyl-5-methylphenyl)-4-oxothiazolidin-2-ylidene)-3-(4-(((1-(4-(trifluoromethoxy)phenyl)-1H-1,2,4-triazol-3-yl)oxy)methyl)phenyl)urea]",50 to 100%,50 to 100%
"Cc1ccc(C(C)C)c(N2C(=O)CS/C2=N\C(=O)Nc2ccc(COc3ncn(-c4ccc(OC(F)(F)F)cc4)n3)cc2F)c1 [F2, (Z)-1-(2-Fluoro-4-(((1-(4-(trifluoromethoxy)phenyl)-1H-1,2,4-triazol-3-yl)oxy)methyl)phenyl)-3-(3-(2-isopropyl-5-methylphenyl)-4-oxothiazolidin-2-ylidene)urea]",50 to 100%,50 to 100%
"Cc1ccc(C(C)C)c(N2C(=O)CS/C2=N\C(=O)Nc2ccc(COc3ncn(-c4ccc(OC(F)(F)F)cc4)n3)c(F)c2)c1 [F3, (Z)-1-(3-Fluoro-4-(((1-(4-(trifluoromethoxy)phenyl)-1H-1,2,4-triazol-3-yl)oxy)methyl)phenyl)-3-(3-(2-isopropyl-5-methylphenyl)-4-oxothiazolidin-2-ylidene)urea]",50 to 100%,50 to 100%
"COc1cc(NC(=O)/N=C2\SCC(=O)N2c2cc(C)ccc2C(C)C)ccc1COc1ncn(-c2ccc(OC(F)(F)F)cc2)n1 [F4, (Z)-1-(3-(2-Isopropyl-5-methylphenyl)-4-oxothiazolidin-2-ylidene)-3-(3-methoxy-4-(((1-(4-(trifluoromethoxy)phenyl)-1H-1,2,4-triazol-3-yl)oxy)methyl)phenyl)urea]",50 to 100%,50 to 100%
"CCCc1ccc(C)cc1N1C(=O)CS/C1=N\C(=O)Nc1ccc(COc2ncn(-c3ccc(OC(F)(F)F)cc3)n2)cc1F [F6, (Z)-1-(2-Fluoro-4-(((1-(4-(trifluoromethoxy)phenyl)-1H-1,2,4-triazol-3-yl)oxy)methyl)phenyl)-3-(3-(5-methyl-2-propylphenyl)-4-oxothiazolidin-2-ylidene)urea]",50 to 100%,50 to 100%
"CCCc1ccc(C)cc1N1C(=O)CS/C1=N\C(=O)Nc1ccc(COc2ncn(-c3ccc(OC(F)(F)F)cc3)n2)c(F)c1 [F7, (Z)-1-(3-Fluoro-4-(((1-(4-(trifluoromethoxy)phenyl)-1H-1,2,4-triazol-3-yl)oxy)methyl)phenyl)-3-(3-(5-methyl-2-propylphenyl)-4-oxothiazolidin-2-ylidene)urea]",50 to 100%,50 to 100%
"CCCc1ccc(C)cc1N1C(=O)CS/C1=N\C(=O)Nc1ccc(COc2ncn(-c3ccc(OC(F)(F)F)cc3)n2)c(OC)c1 [F10, (Z)-1-(3-Methoxy-4-(((1-(4-(trifluoromethoxy)phenyl)-1H-1,2,4-triazol-3-yl)oxy)methyl)phenyl)-3-(3-(5-methyl-2-propylphenyl)-4-oxothiazolidin-2-ylidene)urea]",0%,0%
"COCc1ccc(C)cc1N1C(=O)CS/C1=N\C(=O)Nc1ccc(COc2ncn(-c3ccc(OC(F)(F)F)cc3)n2)c(OC)c1 [F11, (Z)-1-(3-Methoxy-4-(((1-(4-(trifluoromethoxy)phenyl)-1H-1,2,4-triazol-3-yl)oxy)methyl)phenyl)-3-(3-(2-(methoxymethyl)-5-methylphenyl)-4-oxothiazolidin-2-ylidene)urea]",0%,0%
"Cc1cc(N2C(=O)CS/C2=N\C(=O)Nc2ccc(COc3ncn(-c4ccc(OC(F)(F)F)cc4)n3)cc2F)c(C(C)C)cc1F [F12, (Z)-1-(3-(4-Fluoro-2-isopropyl-5-methylphenyl)-4-oxothiazolidin-2-ylidene)-3-(2-fluoro-4-(((1-(4-(trifluoromethoxy)phenyl)-1H-1,2,4-triazol-3-yl)oxy)methyl)phenyl)urea]",50 to 100%,50 to 100%
"CCCc1ccc(C)cc1N1C(=O)CS/C1=N\C(=O)Nc1ccc(COc2ncn(-c3ccc(OC(F)(F)F)cc3)n2)cn1 [F13, (Z)-1-(3-(5-Methyl-2-propylphenyl)-4-oxothiazolidin-2-ylidene)-3-(5-(((1-(4-(trifluoromethoxy)phenyl)-1H-1,2,4-triazol-3-yl)oxy)methyl)pyridin-2-yl)urea]",50 to 100%,50 to 100%
"Cc1ccc(C(C)C)c(N2C(=O)CS/C2=N\C(=O)Nc2ccc(COc3ncn(-c4ccc(OC(F)(F)F)cc4)n3)cn2)c1 [F14, (Z)-1-(3-(2-Isopropyl-5-methylphenyl)-4-oxothiazolidin-2-ylidene)-3-(5-(((1-(4-(trifluoromethoxy)phenyl)-1H-1,2,4-triazol-3-yl)oxy)methyl)pyridin-2-yl)urea]",50 to 100%,50 to 100%
"Cc1ccc(C(C)C)c(N2C(=O)CS/C2=N\C(=O)Nc2ccc(OCc3ncn(-c4ccc(OC(F)(F)F)cc4)n3)cc2)c1 [F15, (Z)-1-(3-(2-Isopropyl-5-methylphenyl)-4-oxothiazolidin-2-ylidene)-3-(4-((1-(4-(trifluoromethoxy)phenyl)-1H-1,2,4-triazol-3-yl)methoxy)phenyl)urea]",50 to 100%,50 to 100%
"Cc1ccc(C(C)C)c(N2C(=O)CS/C2=N\C(=O)Nc2ccc(OCc3ncn(-c4ccc(OC(F)(F)F)cc4)n3)cc2F)c1 [F16, (Z)-1-(2-Fluoro-4-((1-(4-(trifluoromethoxy)phenyl)-1H-1,2,4-triazol-3-yl)methoxy)phenyl)-3-(3-(2-isopropyl-5-methylphenyl)-4-oxothiazolidin-2-ylidene)urea]",50 to 100%,50 to 100%
"Cc1ccc(C(C)C)c(N2C(=O)CS/C2=N\C(=O)Nc2c(F)cc(OCc3ncn(-c4ccc(OC(F)(F)F)cc4)n3)cc2F)c1 [F18, (Z)-1-(2,6-Difluoro-4-((1-(4-(trifluoromethoxy)phenyl)-1H-1,2,4-triazol-3-yl)methoxy)phenyl)-3-(3-(2-isopropyl-5-methylphenyl)-4-oxothiazolidin-2-ylidene)urea]",50 to 100%,50 to 100%
"COCc1ccc(C)cc1N1C(=O)CS/C1=N\C(=O)Nc1c(F)cc(OCc2ncn(-c3ccc(OC(F)(F)F)cc3)n2)cc1F [F19, (Z)-1-(2,6-Difluoro-4-((1-(4-(trifluoromethoxy)phenyl)-1H-1,2,4-triazol-3-yl)methoxy)phenyl)-3-(3-(2-(methoxymethyl)-5-methylphenyl)-4-oxothiazolidin-2-ylidene)urea]",50 to 100%,50 to 100%
"COC(C)c1ccc(C)cc1N1C(=O)CS/C1=N\C(=O)Nc1ccc(OCc2ncn(-c3ccc(OC(F)(F)F)cc3)n2)cc1F (stereo not shown) [F20, (Z)-1-(2-Fluoro-4-((1-(4-(trifluoromethoxy)phenyl)-1H-1,2,4-triazol-3-yl)methoxy)phenyl)-3-(3-(2-(1-methoxyethyl)-5-methylphenyl)-4-oxothiazolidin-2-ylidene)urea]",50 to 100%,50 to 100%
"CCCc1ccc(C)cc1N1C(=O)CS/C1=N\C(=O)Nc1ccc(OCc2ncn(-c3ccc(OC(F)(F)F)cc3)n2)cc1F [F23, (Z)-1-(2-Fluoro-4-((1-(4-(trifluoromethoxy)phenyl)-1H-1,2,4-triazol-3-yl)methoxy)phenyl)-3-(3-(5-methyl-2-propylphenyl)-4-oxothiazolidin-2-ylidene)urea]",50 to 100%,50 to 100%
"Cc1ccc(C(C)C)c(N2C(=O)CS/C2=N\C(=O)Nc2ccc(OCc3ncn(-c4ccc(OC(F)(F)F)cc4)n3)cc2C)c1 [F25, (Z)-1-(3-(2-Isopropyl-5-methylphenyl)-4-oxothiazolidin-2-ylidene)-3-(2-methyl-4-((1-(4-(trifluoromethoxy)phenyl)-1H-1,2,4-triazol-3-yl)methoxy)phenyl)urea]",50 to 100%,50 to 100%
"CCCc1ccc(C)cc1N1C(=O)CS/C1=N\C(=O)Nc1ccc(OCc2ncn(-c3ccc(OC(F)(F)F)cc3)n2)cc1C [F26, (Z)-1-(3-(5-Methyl-2-propylphenyl)-4-oxothiazolidin-2-ylidene)-3-(2-methyl-4-((1-(4-(trifluoromethoxy)phenyl)-1H-1,2,4-triazol-3-yl)methoxy)phenyl)urea]",50 to 100%,50 to 100%
"COCc1ccc(C)cc1N1C(=O)CS/C1=N\C(=O)Nc1ccc(OCc2ncn(-c3ccc(OC(F)(F)F)cc3)n2)cc1C [F27, (Z)-1-(3-(2-(Methoxymethyl)-5-methylphenyl)-4-oxothiazolidin-2-ylidene)-3-(2-methyl-4-((1-(4-(trifluoromethoxy)phenyl)-1H-1,2,4-triazol-3-yl)methoxy)phenyl)urea]",50 to 100%,50 to 100%
